Measurements reported in paper doi:10.1101/2020.06.11.145995v1 (biorxiv, 2020).
Where two headings read alike, the source gives them in different places.

Columns and labels:
Assay in all cases: biochemical
ABL2 = ABL2 (Homo sapiens, UniProt P42684)
ADCK3 = ADCK3 (Homo sapiens, UniProt Q8NI60)
AURKC = AURKC (Homo sapiens, UniProt Q9UQB9)
CAMK1G = CAMK1G (Homo sapiens, UniProt Q96NX5)
CDKL2 = CDKL2 (Homo sapiens, UniProt Q92772)
CDKL3 = CDKL3 (Homo sapiens, UniProt Q8IVW4)
CHEK1 = CHEK1 (Homo sapiens, UniProt O14757)
CHEK1, sequence (O14757 whole entry): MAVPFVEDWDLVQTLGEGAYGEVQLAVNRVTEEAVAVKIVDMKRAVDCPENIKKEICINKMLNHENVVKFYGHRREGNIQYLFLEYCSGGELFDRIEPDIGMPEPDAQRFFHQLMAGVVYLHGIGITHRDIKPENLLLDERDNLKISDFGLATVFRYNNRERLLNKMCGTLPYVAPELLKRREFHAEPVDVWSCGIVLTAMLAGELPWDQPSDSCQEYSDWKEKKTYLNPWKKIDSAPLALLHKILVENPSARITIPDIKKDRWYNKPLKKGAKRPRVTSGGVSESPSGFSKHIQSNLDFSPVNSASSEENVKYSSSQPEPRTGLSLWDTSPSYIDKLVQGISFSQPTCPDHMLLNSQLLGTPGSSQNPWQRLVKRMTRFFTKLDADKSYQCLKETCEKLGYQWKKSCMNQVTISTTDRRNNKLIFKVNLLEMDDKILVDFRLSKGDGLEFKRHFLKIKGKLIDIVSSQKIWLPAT

CSNK1A1 = CSNK1A1 (Homo sapiens, UniProt P48729)
CSNK1A1L = CSNK1A1L (Homo sapiens, UniProt Q8N752)
DAPK3 = DAPK3 (Homo sapiens, UniProt O43293)
DCAMKL1 = DCAMKL1 (Homo sapiens, UniProt O15075)
DDR1 = DDR1 (Homo sapiens, UniProt Q08345)
DLK = DLK (Homo sapiens, UniProt Q12852)
DMPK = DMPK (Homo sapiens, UniProt Q09013)
EGFR(G719C) = EGFR(G719C) (Homo sapiens, UniProt P00533, G719C)
GAK = GAK (Homo sapiens, UniProt O14976)
GAK, sequence (O14976 whole entry): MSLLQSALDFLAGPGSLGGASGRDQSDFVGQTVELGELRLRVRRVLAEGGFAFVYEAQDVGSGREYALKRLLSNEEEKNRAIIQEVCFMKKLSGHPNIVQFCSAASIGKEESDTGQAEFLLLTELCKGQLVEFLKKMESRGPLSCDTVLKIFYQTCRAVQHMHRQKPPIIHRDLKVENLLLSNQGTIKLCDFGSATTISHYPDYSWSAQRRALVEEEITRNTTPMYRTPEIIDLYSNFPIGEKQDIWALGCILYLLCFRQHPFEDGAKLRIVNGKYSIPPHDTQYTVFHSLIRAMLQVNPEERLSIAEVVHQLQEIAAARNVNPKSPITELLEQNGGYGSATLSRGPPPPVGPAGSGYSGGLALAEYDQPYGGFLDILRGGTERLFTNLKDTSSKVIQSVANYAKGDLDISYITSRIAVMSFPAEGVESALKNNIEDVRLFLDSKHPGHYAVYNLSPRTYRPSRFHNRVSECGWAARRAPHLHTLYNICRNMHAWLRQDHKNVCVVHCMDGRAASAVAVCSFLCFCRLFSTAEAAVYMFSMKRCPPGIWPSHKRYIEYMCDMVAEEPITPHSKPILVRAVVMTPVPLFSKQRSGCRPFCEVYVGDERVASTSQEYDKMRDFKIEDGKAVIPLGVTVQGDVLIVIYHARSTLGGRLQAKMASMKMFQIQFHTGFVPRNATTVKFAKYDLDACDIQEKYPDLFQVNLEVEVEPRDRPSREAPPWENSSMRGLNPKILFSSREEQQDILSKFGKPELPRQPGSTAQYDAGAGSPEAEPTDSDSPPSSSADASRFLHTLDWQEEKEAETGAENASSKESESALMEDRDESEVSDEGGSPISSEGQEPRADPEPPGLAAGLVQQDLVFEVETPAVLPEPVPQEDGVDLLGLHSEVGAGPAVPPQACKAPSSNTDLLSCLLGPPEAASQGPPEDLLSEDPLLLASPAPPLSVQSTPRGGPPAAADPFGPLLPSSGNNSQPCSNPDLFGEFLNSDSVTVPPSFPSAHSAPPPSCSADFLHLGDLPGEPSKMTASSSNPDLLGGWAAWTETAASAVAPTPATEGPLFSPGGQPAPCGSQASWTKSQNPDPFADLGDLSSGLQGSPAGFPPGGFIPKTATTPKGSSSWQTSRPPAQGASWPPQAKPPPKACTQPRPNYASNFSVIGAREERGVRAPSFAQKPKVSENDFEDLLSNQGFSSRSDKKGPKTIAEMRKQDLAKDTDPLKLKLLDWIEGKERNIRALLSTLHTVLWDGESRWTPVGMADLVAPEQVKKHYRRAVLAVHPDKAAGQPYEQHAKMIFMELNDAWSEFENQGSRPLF

HIPK3 = HIPK3 (Homo sapiens, UniProt Q9H422)
ICK = ICK (Homo sapiens, UniProt Q9UPZ9)
IRAK3 = IRAK3 (Homo sapiens, UniProt Q9Y616)
KIT(L576P) = KIT(L576P) (Homo sapiens, UniProt P10721, L576P)
KIT(L576P), sequence (P10721 whole entry L576P): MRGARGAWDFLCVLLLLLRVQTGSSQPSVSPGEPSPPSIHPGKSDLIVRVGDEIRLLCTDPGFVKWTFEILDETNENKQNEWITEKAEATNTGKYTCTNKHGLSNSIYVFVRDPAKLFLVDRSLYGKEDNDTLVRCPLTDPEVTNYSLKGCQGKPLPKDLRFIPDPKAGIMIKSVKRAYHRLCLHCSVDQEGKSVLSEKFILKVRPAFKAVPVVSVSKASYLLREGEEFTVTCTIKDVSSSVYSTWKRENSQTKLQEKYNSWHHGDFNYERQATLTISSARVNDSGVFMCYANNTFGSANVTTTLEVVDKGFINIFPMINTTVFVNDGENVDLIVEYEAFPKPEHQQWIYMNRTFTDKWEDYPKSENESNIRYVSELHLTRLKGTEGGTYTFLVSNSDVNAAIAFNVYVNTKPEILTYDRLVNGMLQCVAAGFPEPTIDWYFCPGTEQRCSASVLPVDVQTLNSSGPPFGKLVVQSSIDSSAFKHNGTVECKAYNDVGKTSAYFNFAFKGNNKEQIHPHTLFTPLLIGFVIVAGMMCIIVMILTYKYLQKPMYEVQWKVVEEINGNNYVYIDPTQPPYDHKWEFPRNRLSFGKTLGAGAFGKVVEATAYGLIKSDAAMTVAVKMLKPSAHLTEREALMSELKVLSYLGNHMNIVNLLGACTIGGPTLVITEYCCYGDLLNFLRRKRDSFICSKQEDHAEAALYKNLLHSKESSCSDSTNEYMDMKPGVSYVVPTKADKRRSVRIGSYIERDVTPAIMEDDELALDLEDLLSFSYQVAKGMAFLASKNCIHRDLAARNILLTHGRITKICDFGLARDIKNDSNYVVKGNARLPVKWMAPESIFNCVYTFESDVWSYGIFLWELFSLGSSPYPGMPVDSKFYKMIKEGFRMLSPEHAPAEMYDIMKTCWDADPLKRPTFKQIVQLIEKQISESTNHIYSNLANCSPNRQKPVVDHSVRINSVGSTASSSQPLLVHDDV

LATS2 = LATS2 (Homo sapiens, UniProt Q9NRM7)
LIMK2 = LIMK2 (Homo sapiens, UniProt P53671)
LIMK2, sequence (P53671 whole entry): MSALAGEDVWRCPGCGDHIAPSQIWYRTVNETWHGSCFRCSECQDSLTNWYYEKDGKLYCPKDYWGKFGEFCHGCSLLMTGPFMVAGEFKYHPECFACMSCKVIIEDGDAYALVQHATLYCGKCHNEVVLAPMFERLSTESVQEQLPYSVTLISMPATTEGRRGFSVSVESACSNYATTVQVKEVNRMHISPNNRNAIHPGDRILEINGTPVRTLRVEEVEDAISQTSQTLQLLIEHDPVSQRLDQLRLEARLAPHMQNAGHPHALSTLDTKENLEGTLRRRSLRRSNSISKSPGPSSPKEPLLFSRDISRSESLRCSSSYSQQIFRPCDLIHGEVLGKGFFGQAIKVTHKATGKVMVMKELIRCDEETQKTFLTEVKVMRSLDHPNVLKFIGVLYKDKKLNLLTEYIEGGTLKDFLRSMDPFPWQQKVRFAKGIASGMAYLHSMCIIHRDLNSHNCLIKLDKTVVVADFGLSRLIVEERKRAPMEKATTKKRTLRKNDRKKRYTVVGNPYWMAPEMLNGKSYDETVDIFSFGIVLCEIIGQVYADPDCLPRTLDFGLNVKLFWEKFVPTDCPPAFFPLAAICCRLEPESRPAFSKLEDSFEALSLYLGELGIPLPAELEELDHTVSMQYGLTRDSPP

LKB1 = LKB1 (Homo sapiens, UniProt Q15831)
LKB1, sequence (Q15831 whole entry): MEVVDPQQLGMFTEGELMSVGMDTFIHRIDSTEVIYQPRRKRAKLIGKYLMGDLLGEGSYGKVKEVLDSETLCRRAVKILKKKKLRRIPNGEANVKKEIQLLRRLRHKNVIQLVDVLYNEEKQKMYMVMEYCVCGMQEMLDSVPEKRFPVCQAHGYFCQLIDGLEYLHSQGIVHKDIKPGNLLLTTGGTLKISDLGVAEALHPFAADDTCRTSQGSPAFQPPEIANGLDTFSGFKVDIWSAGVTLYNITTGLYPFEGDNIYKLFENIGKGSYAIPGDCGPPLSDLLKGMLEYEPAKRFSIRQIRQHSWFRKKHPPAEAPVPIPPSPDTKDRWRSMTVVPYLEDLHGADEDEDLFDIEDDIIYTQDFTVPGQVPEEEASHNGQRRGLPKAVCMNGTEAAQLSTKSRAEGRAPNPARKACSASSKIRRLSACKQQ

MAP3K15 = MAP3K15 (Homo sapiens, UniProt Q6ZN16)
MAP4K2 = MAP4K2 (Homo sapiens, UniProt Q12851)
MAP4K2, sequence (Q12851 whole entry): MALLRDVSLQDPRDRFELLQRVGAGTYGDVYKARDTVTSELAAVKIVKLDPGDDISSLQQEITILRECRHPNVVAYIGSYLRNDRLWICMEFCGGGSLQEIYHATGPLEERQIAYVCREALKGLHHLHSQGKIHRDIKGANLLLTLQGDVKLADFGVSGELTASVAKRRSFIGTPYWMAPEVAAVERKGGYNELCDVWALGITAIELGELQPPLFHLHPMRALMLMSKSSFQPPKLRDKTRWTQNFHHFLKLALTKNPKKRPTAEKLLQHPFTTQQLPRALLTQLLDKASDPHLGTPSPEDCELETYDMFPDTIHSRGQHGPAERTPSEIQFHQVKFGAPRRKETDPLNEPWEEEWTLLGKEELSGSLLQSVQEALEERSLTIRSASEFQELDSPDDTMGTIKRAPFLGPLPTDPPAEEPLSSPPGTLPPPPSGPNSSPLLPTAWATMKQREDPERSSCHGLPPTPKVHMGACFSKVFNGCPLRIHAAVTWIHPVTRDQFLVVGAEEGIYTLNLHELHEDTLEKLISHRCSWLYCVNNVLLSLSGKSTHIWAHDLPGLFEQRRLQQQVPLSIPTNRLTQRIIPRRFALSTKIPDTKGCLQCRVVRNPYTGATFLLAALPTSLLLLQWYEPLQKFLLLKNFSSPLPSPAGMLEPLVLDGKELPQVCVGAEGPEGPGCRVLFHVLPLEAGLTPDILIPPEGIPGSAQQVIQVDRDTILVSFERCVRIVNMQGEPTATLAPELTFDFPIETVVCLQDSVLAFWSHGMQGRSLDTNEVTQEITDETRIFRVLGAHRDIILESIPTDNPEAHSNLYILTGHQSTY

MEK4 = MEK4 (Homo sapiens, UniProt P45985)
MELK = MELK (Homo sapiens, UniProt Q14680)
MRCKA = MRCKA (Homo sapiens, UniProt Q5VT25)
MTOR = MTOR (Homo sapiens, UniProt P42345)
MYLK = MYLK (Homo sapiens, UniProt Q15746)
[1] = read-out: HYJ-2-002-1 (1uM) % control
[2] = read-out: CPT-1-70-1 (1uM) % control

AURKC, sequence (Q9UQB9 whole entry): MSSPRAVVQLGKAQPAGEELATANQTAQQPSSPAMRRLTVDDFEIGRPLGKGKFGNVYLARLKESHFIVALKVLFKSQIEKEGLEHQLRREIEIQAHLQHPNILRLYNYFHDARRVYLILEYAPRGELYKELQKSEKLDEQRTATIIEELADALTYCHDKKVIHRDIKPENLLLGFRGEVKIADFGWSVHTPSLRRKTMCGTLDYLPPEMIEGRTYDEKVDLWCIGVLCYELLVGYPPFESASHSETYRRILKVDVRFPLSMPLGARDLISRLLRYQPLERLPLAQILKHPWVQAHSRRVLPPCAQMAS

SMILES: CCN1CCN(Cc2ccc(NC(=O)c3ccc(C)c(CCc4cnc5[nH]ccc5c4OC)c3)cc2C(F)(F)F)CC1 [HYJ-2-002-1]
- remaining activity at 1 µM (ABL2; [1]): 0%
- remaining activity at 1 µM (ADCK3; [1]): 100%
- remaining activity at 1 µM (AURKC; [1]): 80%
- remaining activity at 1 µM (CAMK1G; [1]): 94%
- remaining activity at 1 µM (CDKL2; [1]): 2.3%
- remaining activity at 1 µM (CDKL3; [1]): 34%
- remaining activity at 1 µM (CHEK1; [1]): 100%
- remaining activity at 1 µM (CSNK1A1; [1]): 100%
- remaining activity at 1 µM (CSNK1A1L; [1]): 100%
- remaining activity at 1 µM (DAPK3; [1]): 100%
- remaining activity at 1 µM (DCAMKL1; [1]): 100%
- remaining activity at 1 µM (DDR1; [1]): 0%
- remaining activity at 1 µM (DLK; [1]): 86%
- remaining activity at 1 µM (DMPK; [1]): 100%
- remaining activity at 1 µM (EGFR(G719C); [1]): 0.75%
- remaining activity at 1 µM (GAK; [1]): 4.8%
- remaining activity at 1 µM (HIPK3; [1]): 55%
- remaining activity at 1 µM (ICK; [1]): 100%
- remaining activity at 1 µM (IRAK3; [1]): 100%
- remaining activity at 1 µM (KIT(L576P); [1]): 82%
- remaining activity at 1 µM (LATS2; [1]): 98%
- remaining activity at 1 µM (LIMK2; [1]): 32%
- remaining activity at 1 µM (LKB1; [1]): 100%
- remaining activity at 1 µM (MAP3K15; [1]): 100%
- remaining activity at 1 µM (MAP4K2; [1]): 4.6%
- remaining activity at 1 µM (MEK4; [1]): 100%
- remaining activity at 1 µM (MELK; [1]): 48%
- remaining activity at 1 µM (MRCKA; [1]): 100%
- remaining activity at 1 µM (MTOR; [1]): 93%
- remaining activity at 1 µM (MYLK; [1]): 100%

SMILES: CN1CCN(c2ccc(Nc3nc(Oc4ccc(NC(=O)CCl)cc4)c4cc[nH]c4n3)cc2)CC1 [CPT1-70-1]
- remaining activity at 1 µM (ABL2; [2]): 60%
- remaining activity at 1 µM (ADCK3; [2]): 100%
- remaining activity at 1 µM (AURKC; [2]): 51%
- remaining activity at 1 µM (CAMK1G; [2]): 50%
- remaining activity at 1 µM (CDKL2; [2]): 11%
- remaining activity at 1 µM (CDKL3; [2]): 100%
- remaining activity at 1 µM (CHEK1; [2]): 92%
- remaining activity at 1 µM (CSNK1A1; [2]): 55%
- remaining activity at 1 µM (CSNK1A1L; [2]): 80%
- remaining activity at 1 µM (DAPK3; [2]): 59%
- remaining activity at 1 µM (DCAMKL1; [2]): 100%
- remaining activity at 1 µM (DDR1; [2]): 79%
- remaining activity at 1 µM (DLK; [2]): 78%
- remaining activity at 1 µM (DMPK; [2]): 41%
- remaining activity at 1 µM (EGFR(G719C); [2]): 8%
- remaining activity at 1 µM (GAK; [2]): 7.9%
- remaining activity at 1 µM (HIPK3; [2]): 74%
- remaining activity at 1 µM (ICK; [2]): 100%
- remaining activity at 1 µM (IRAK3; [2]): 89%
- remaining activity at 1 µM (KIT(L576P); [2]): 8.9%
- remaining activity at 1 µM (LATS2; [2]): 40%
- remaining activity at 1 µM (LIMK2; [2]): 100%
- remaining activity at 1 µM (LKB1; [2]): 76%
- remaining activity at 1 µM (MAP3K15; [2]): 100%
- remaining activity at 1 µM (MAP4K2; [2]): 25%
- remaining activity at 1 µM (MEK4; [2]): 35%
- remaining activity at 1 µM (MELK; [2]): 16%
- remaining activity at 1 µM (MRCKA; [2]): 100%
- remaining activity at 1 µM (MTOR; [2]): 66%
- remaining activity at 1 µM (MYLK; [2]): 100%
